Like-named read-outs stand apart in the source and are kept apart here. *1 amine or outer side, *2 acyl side, *3 side chain or, on linkers, in order; H or OH if unused. Where a SMILES comes first, the peptide text is derived from it. Side-chain parts run from the residue outwards. [ ]: non-standard residue; d: D form. The star is where a group is joined. Decanoyl(10-(4-HOOC-PhO)) = O=C(O)c1ccc(OCCCCCCCCCC(=O)*)cc1; αMePhe(2-F) = C[C@](N)(Cc1ccccc1F)C(=O)O; γGlu = O=C(O)[C@H](CCC(=O)[*:2])N[*:1]; αMeY = C[C@](N)(Cc1ccc(O)cc1)C(=O)O; αMeL = CC(C)C[C@](C)(N)C(=O)O; Orn = NCCC[C@H](N)C(=O)O; AEEA = NCCOCCOCC(=O)O; Aib = CC(C)(N)C(=O)O
Tests used:
Type in all cases: cell-based
hGIPR = biological target: T1, hGIPR (Homo sapiens, UniProt P48546); test: Functional cAMP formation (HTRF) in HEK-293 clonal cells expressing hGIPR, 0.1% bovine casein, without or with 1.0% human serum albumin; details: for Emax: percent of maximal response to GIP(1-42)NH2; for EC50: hGIPR EC50, nM (SEM, n), cAMP, 37° C.
T1 construct: expressed in transfected cells
T1 sequence (P48546 22-466): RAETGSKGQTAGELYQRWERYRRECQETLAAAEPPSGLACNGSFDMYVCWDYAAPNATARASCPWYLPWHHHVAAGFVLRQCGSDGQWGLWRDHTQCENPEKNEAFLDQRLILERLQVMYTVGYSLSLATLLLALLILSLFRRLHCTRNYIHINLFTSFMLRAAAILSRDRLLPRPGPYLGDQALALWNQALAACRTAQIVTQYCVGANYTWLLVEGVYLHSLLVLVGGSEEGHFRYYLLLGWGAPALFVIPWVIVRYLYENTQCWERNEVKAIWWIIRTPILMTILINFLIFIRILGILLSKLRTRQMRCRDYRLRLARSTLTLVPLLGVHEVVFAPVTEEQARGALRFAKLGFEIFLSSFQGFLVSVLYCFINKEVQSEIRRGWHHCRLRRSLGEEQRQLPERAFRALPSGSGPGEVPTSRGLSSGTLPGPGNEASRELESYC
Procedure, shortened: (§1)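 Cells were stimulated with peptide for 30 min at 37° C, then intracellular cAMP was measured by competitive HTRF (665/620 nm ratio) and converted to nM using a cAMP standard curve. Relative EC50 and Emax came from four-parameter logistic fits of percent maximal response against peptide concentration.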

hGCGR = biological target: T2, hGCGR (Homo sapiens, UniProt P47871); test: Functional cAMP formation (HTRF) in HEK-293 clonal cells expressing hGCGR, 0.1% bovine casein, without or with 1.0% human serum albumin; details: hGCGR EC50, nM (SEM, n), cAMP, 37° C.
T2 construct: expressed in transfected cells
T2 sequence (P47871 26-477): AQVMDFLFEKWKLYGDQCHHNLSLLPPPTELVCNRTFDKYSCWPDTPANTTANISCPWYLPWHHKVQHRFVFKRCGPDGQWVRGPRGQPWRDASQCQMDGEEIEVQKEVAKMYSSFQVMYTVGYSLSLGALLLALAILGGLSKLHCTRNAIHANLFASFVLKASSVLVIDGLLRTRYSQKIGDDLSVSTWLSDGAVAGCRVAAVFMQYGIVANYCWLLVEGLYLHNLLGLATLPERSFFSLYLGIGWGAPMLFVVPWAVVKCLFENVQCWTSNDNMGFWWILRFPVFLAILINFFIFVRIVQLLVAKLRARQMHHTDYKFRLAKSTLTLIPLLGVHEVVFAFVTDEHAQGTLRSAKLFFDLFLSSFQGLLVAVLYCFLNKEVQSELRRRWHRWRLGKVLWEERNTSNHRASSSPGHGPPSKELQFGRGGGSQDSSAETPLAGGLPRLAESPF
Procedure, shortened: as §1

hGLP-1R = hGLP-1R (Homo sapiens, UniProt P43220); test: Functional cAMP formation (HTRF) in HEK-293 clonal cells expressing hGLP-1R, 0.1% bovine casein, without or with 1.0% human serum albumin; design: expressed in transfected cells; details: for Emax: percent of maximal response to GLP-1(7-36)NH2; for EC50: hGLP-1R EC50, nM (SEM, n), cAMP, 37° C., 0.1% bovine casein (no human serum albumin), geometric mean
hGLP-1R, sequence (P43220 24-463): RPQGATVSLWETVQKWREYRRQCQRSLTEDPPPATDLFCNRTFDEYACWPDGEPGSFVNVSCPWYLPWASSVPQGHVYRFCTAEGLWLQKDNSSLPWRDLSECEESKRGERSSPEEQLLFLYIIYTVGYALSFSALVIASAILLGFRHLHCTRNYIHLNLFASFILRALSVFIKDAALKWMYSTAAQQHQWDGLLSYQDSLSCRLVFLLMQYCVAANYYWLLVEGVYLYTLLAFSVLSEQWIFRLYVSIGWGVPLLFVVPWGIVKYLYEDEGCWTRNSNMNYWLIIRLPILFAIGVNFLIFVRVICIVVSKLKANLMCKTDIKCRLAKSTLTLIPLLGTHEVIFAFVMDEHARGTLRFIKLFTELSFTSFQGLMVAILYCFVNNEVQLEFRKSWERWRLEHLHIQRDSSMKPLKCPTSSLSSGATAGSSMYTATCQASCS
Procedure, shortened: as §1

[1] = HEK293, read-out: hGIPR Emax, % ± SEM, cAMP, 37° C., 0.1% bovine casein and 1.0% human serum albumin
[2] = 0.1% bovine casein (no human serum albumin), geometric mean
[3] = 0.1% bovine casein and 1.0% human serum albumin, geometric mean (SEM, n)
[4] = HEK293, read-out: hGLP-1R Emax, % ± SEM, cAMP, 37° C., 0.1% bovine casein and 1.0% human serum albumin
[5] = HEK293, read-out: hGIPR Emax, % ± SEM, cAMP, 37° C., 0.1% bovine casein, arithmetic mean

Compound | Emax (hGIPR; [1]) [%] | EC50 (hGIPR; [2]) [nM] | EC50 (hGCGR; [2]) [nM] | EC50 (hGCGR; [3]) [nM] | Emax (hGLP-1R; [4]) [%] | EC50 (hGLP-1R) [nM] | Emax (hGIPR; [5]) [%] | EC50 (hGIPR; [3]) [nM] | Emax (hGLP-1R; HEK293, read-out: hGLP-1R Emax, % ± SEM, cAMP, 37° C., 0.1% bovine casein, arithmetic mean) [%]
CC[C@H](C)[C@H](NC(=O)[C@H](CC(C)C)NC(=O)[C@](C)(Cc1ccc(O)cc1)NC(=O)[C@@H](CCC(=O)O)NC(=O)[C@@H](NC(=O)[C@H](Cc1ccccc1)NC(=O)[C@H](CCC(=O)O)NC(=O)C(C)(C)NC(=O)[C@H](CCC(N)=O)NC(=O)[C@H](C)NC(=O)[C@H](CCCCNC(=O)COCCOCCNC(=O)CC[C@H](NC(=O)CCCCCCCCCOc1ccc(C(=O)O)cc1)C(=O)O)NC(=O)[C@H](CCCN)NC(=O)[C@H](CC(=O)O)NC(=O)[C@H](CC(C)C)NC(=O)[C@](C)(CC(C)C)NC(=O)[C@@H](NC(=O)C(C)(C)NC(=O)[C@H](Cc1ccc(O)cc1)NC(=O)[C@H](CC(=O)O)NC(=O)[C@H](CO)NC(=O)[C@@H](NC(=O)[C@](C)(Cc1ccccc1F)NC(=O)[C@@H](NC(=O)CNC(=O)[C@H](CCC(=O)O)NC(=O)C(C)(C)NC(=O)[C@@H](N)Cc1ccc(O)cc1)[C@@H](C)O)[C@@H](C)O)[C@@H](C)CC)[C@@H](C)CC)C(=O)N[C@@H](CCCCNC(=O)COCCOCCNC(=O)CC[C@H](NC(=O)CCCCCCCCCOc1ccc(C(=O)O)cc1)C(=O)O)C(=O)NCC(=O)NCC(=O)N1CCC[C@H]1C(=O)N[C@@H](CO)C(=O)N[C@@H](CO)C(=O)NCC(=O)N[C@@H](C)C(=O)N1CCC[C@H]1C(=O)N1CCC[C@H]1C(=O)N1CCC[C@H]1C(=O)N[C@@H](CO)C(N)=O [Example 373] | 82.4 | 0.0152 | > 9950 | > 9950 | 112 | 0.329 |  |  | 
CC[C@H](C)[C@H](NC(=O)[C@H](CC(C)C)NC(=O)[C@](C)(Cc1ccc(O)cc1)NC(=O)[C@@H](CCC(=O)O)NC(=O)[C@@H](NC(=O)[C@H](Cc1ccccc1)NC(=O)[C@H](CCC(=O)O)NC(=O)C(C)(C)NC(=O)[C@H](CCC(N)=O)NC(=O)[C@H](C)NC(=O)[C@H](CCCCNC(=O)COCCOCCNC(=O)CC[C@H](NC(=O)CCCCCCCCCOc1ccc(C(=O)O)cc1)C(=O)O)NC(=O)[C@H](CCCN)NC(=O)[C@H](CC(=O)O)NC(=O)[C@H](CC(C)C)NC(=O)[C@](C)(CC(C)C)NC(=O)[C@@H](NC(=O)C(C)(C)NC(=O)[C@H](Cc1ccc(O)cc1)NC(=O)[C@H](CC(=O)O)NC(=O)[C@H](CO)NC(=O)[C@@H](NC(=O)[C@](C)(Cc1ccccc1F)NC(=O)[C@@H](NC(=O)CNC(=O)[C@H](CCC(=O)O)NC(=O)C(C)(C)NC(=O)[C@@H](N)Cc1ccc(O)cc1)[C@@H](C)O)[C@@H](C)O)[C@@H](C)CC)[C@@H](C)CC)C(=O)N[C@@H](CCC(=O)O)C(=O)NCC(=O)NCC(=O)N1CCC[C@H]1C(=O)N[C@@H](CO)C(=O)N[C@@H](CO)C(=O)NCC(=O)N[C@@H](C)C(=O)N1CCC[C@H]1C(=O)N1CCC[C@H]1C(=O)N1CCC[C@H]1C(=O)N[C@@H](CO)C(=O)N[C@@H](CCCCNC(=O)COCCOCCNC(=O)CC[C@H](NC(=O)CCCCCCCCCOc1ccc(C(=O)O)cc1)C(=O)O)C(N)=O [Example 374] | 88.8 | 0.0135 | > 9950 | > 9950 |  | 0.269 | 96.2 |  | 
CC[C@H](C)[C@H](NC(=O)[C@H](CCCN)NC(=O)[C@H](CC(=O)O)NC(=O)[C@H](CC(C)C)NC(=O)[C@](C)(CC(C)C)NC(=O)[C@@H](NC(=O)C(C)(C)NC(=O)[C@H](Cc1ccc(O)cc1)NC(=O)[C@H](CC(=O)O)NC(=O)[C@H](CO)NC(=O)[C@@H](NC(=O)[C@](C)(Cc1ccccc1F)NC(=O)[C@@H](NC(=O)CNC(=O)[C@H](CCC(=O)O)NC(=O)C(C)(C)NC(=O)[C@@H](N)Cc1ccc(O)cc1)[C@@H](C)O)[C@@H](C)O)[C@@H](C)CC)C(=O)N[C@@H](C)C(=O)N[C@@H](CCC(N)=O)C(=O)NC(C)(C)C(=O)N[C@@H](CCC(=O)O)C(=O)N[C@@H](Cc1ccccc1)C(=O)N[C@H](C(=O)N[C@@H](CCCCNC(=O)COCCOCCNC(=O)CC[C@H](NC(=O)CCCCCCCCCOc1ccc(C(=O)O)cc1)C(=O)O)C(=O)N[C@@](C)(Cc1ccc(O)cc1)C(=O)N[C@@H](CC(C)C)C(=O)N[C@H](C(=O)N[C@@H](CCCCNC(=O)COCCOCCNC(=O)CC[C@H](NC(=O)CCCCCCCCCOc1ccc(C(=O)O)cc1)C(=O)O)C(=O)NCC(=O)NCC(=O)N1CCC[C@H]1C(=O)N[C@@H](CO)C(=O)N[C@@H](CO)C(=O)NCC(=O)N[C@@H](C)C(=O)N1CCC[C@H]1C(=O)N1CCC[C@H]1C(=O)N1CCC[C@H]1C(=O)N[C@@H](CO)C(N)=O)[C@@H](C)CC)[C@@H](C)CC [Example 375] | 85.4 | 0.0566 | > 9950 | > 9950 | 113 | 1.11 | 100 | 4.68 | 
CC[C@H](C)[C@H](NC(=O)[C@H](CCCN)NC(=O)[C@H](CC(=O)O)NC(=O)[C@H](CC(C)C)NC(=O)[C@](C)(CC(C)C)NC(=O)[C@@H](NC(=O)C(C)(C)NC(=O)[C@H](Cc1ccc(O)cc1)NC(=O)[C@H](CC(=O)O)NC(=O)[C@H](CO)NC(=O)[C@@H](NC(=O)[C@](C)(Cc1ccccc1F)NC(=O)[C@@H](NC(=O)CNC(=O)[C@H](CCC(=O)O)NC(=O)C(C)(C)NC(=O)[C@@H](N)Cc1ccc(O)cc1)[C@@H](C)O)[C@@H](C)O)[C@@H](C)CC)C(=O)N[C@@H](C)C(=O)N[C@@H](CCC(N)=O)C(=O)NC(C)(C)C(=O)N[C@@H](CCCCNC(=O)COCCOCCNC(=O)CC[C@H](NC(=O)CCCCCCCCCOc1ccc(C(=O)O)cc1)C(=O)O)C(=O)N[C@@H](Cc1ccccc1)C(=O)N[C@H](C(=O)N[C@H](CCC(=O)O)C(=O)N[C@@](C)(Cc1ccc(O)cc1)C(=O)N[C@@H](CC(C)C)C(=O)N[C@H](C(=O)N[C@@H](CCCCNC(=O)COCCOCCNC(=O)CC[C@H](NC(=O)CCCCCCCCCOc1ccc(C(=O)O)cc1)C(=O)O)C(=O)NCC(=O)NCC(=O)N1CCC[C@H]1C(=O)N[C@@H](CO)C(=O)N[C@@H](CO)C(=O)NCC(=O)N[C@@H](C)C(=O)N1CCC[C@H]1C(=O)N1CCC[C@H]1C(=O)N1CCC[C@H]1C(=O)N[C@@H](CO)C(N)=O)[C@@H](C)CC)[C@@H](C)CC [Example 376] (H-Y[Aib]EGT[αMePhe(2-F)]TSDY[Aib]I[αMeL]LD[Orn]IAQ[Aib]K([AEEA-γGlu-Decanoyl(10-(4-HOOC-PhO))])FI[dE][αMeY]LIK([AEEA-γGlu-Decanoyl(10-(4-HOOC-PhO))])GGPSSGAPPPS-NH2) | 88.3 | 0.0281 | > 9950 | > 9950 | 121 | 0.539 |  |  | 
CC[C@H](C)[C@H](NC(=O)[C@H](CCCN)NC(=O)[C@H](CC(=O)O)NC(=O)[C@H](CC(C)C)NC(=O)[C@](C)(CC(C)C)NC(=O)[C@@H](NC(=O)C(C)(C)NC(=O)[C@H](Cc1ccc(O)cc1)NC(=O)[C@H](CC(=O)O)NC(=O)[C@H](CO)NC(=O)[C@@H](NC(=O)[C@](C)(Cc1ccccc1F)NC(=O)[C@@H](NC(=O)CNC(=O)[C@H](CCC(=O)O)NC(=O)C(C)(C)NC(=O)[C@@H](N)Cc1ccc(O)cc1)[C@@H](C)O)[C@@H](C)O)[C@@H](C)CC)C(=O)N[C@@H](C)C(=O)N[C@@H](CCC(N)=O)C(=O)NC(C)(C)C(=O)N[C@@H](CCCCNC(=O)COCCOCCNC(=O)CC[C@H](NC(=O)CCCCCCCCCOc1ccc(C(=O)O)cc1)C(=O)O)C(=O)N[C@@H](Cc1ccccc1)C(=O)N[C@H](C(=O)N[C@H](CCC(=O)O)C(=O)N[C@@](C)(Cc1ccc(O)cc1)C(=O)N[C@@H](CC(C)C)C(=O)N[C@H](C(=O)N[C@@H](CCC(=O)O)C(=O)NCC(=O)NCC(=O)N1CCC[C@H]1C(=O)N[C@@H](CO)C(=O)N[C@@H](CO)C(=O)NCC(=O)N[C@@H](C)C(=O)N1CCC[C@H]1C(=O)N1CCC[C@H]1C(=O)N1CCC[C@H]1C(=O)N[C@@H](CO)C(=O)N[C@@H](CCCCNC(=O)COCCOCCNC(=O)CC[C@H](NC(=O)CCCCCCCCCOc1ccc(C(=O)O)cc1)C(=O)O)C(N)=O)[C@@H](C)CC)[C@@H](C)CC [Example 377] (H-Y[Aib]EGT[αMePhe(2-F)]TSDY[Aib]I[αMeL]LD[Orn]IAQ[Aib]K([AEEA-γGlu-Decanoyl(10-(4-HOOC-PhO))])FI[dE][αMeY]LIEGGPSSGAPPPSK([AEEA-γGlu-Decanoyl(10-(4-HOOC-PhO))])-NH2) | 79.4 | 0.0205 | > 9950 | > 9950 | 110 | 0.356 | 92.8 |  | 100
